Data on 1 compound can be found in patent US20240197728A1, “METHODS AND PHARMACEUTICAL COMPOSITIONS FOR TREATING REFRACTORY EPILEPSY” (INSERM (INSTITUT NATIONAL DE LA SANTÉ ET DE LA RECHERCHE …, priority 2021, published 2024).

This assay concerns lithium-pilocarpine model of mTLE. As to the kind of experiment: Lithium-pilocarpine mouse model of mTLE, telemetric ECoG seizure detection. The class given is in vivo, C57Bl6/J mice. The note with it: PCPZ 2 mg/kg i.p. twice daily. The method, then:
Our procedures were all approved by local ethics committee (Charles Darwin, Apafis 202008050923999 v4). 8 weeks-old male C57B16/J mice were used in a pilocarpine-based model of temporal lobe epilepsy as described. In brief, animals received an intraperitoneal (ip) injection of LiCl (423 mg/kg) and scopolamine (1 mg/kg), respectively 18-24 hours and 1 hour prior to pilocarpine. Pilocarpine (75 mg/kg) was then injected ip and mice were continuously monitored for the onset of status epilepticus (SE). In mice in which the first pilocarpine injection had not triggered SE after one hour, a second injection at 20 mg/kg was performed. SE was interrupted one hour after onset by ip injection of diazepam and ketamine (both at 10 mg/kg). […] They were monitored daily for weight, behavior and were provided with enriched liquid food (Fortimel Energy®) for the first 5-7 days post SE. […]
ECoG probe implantation was performed 28 days post SE in all mice except for 1 mouse that was implanted prior to SE induction in order to monitor chronic seizure onset (FIG. 6D). […] One week after implantation, ECoG signal (0.3-160 Hz) were recorded continuously using a telemetric Octal Data Receiver (OpenSourceInstruments), amplified 100× and acquired at 512 Hz. Recordings were analyzed offline using Event Classification Processor ECP20 under NeuroArchiver 132. […]

For `CN1CCN(CCCN2c3ccccc3Sc3ccc(Cl)cc32)CC1` [PCPZ, prochlorperazine], the seizure frequency (chronic phase days 40-45 post-SE, saline group 2.86±0.83) is given as 0.95±0.42 per day. Further, for the setting “days 40-45 post-SE”, the “reduction in seizure frequency compared to saline control group” value is recorded as 3 fold.
